According to patent US4829086A, “Soft β-adrenergic blocking agents” (priority 1985, dated 1989):
Counter-ions that a name gives are not always drawn.

Tests used:
[1] = tested on: heart rate response to isoproterenol (β-adrenergic); assay: Cardiovascular experiments in dogs: blockade of isoproterenol heart rate response; type: in vivo, mongrel dogs
Experimental: Method. Healthy, mongrel dogs were anesthetized with a combination of morphine sulfate (2.0 mg/kg, subcutaneously) followed in 20 minutes with pentabarbital sodium (15 mg/kg, intravenously). Supplemental pentabarbital was given as necessary. A femoral vein was catheterized with polyethylene tubing to the level of the heart for injecting drug solutions. A polyethylene tube filled with heparinized saline was inserted through the femoral artery and advanced to the thoracic aorta for the measurement of arterial pressure. The left carotid artery was cannulated with a Millar® transducer-tip catheter for measurement of left ventricular pressure (LVP). The rising slope of the LVP signal was differentiated to give dP/dt, an estimate of myocardial contractility. Heart rate was determined via a Grass cardiotachometer triggered by the R wave of the lead II EKG. All variables were recorded on a Grass polygraph.
Dose-response curves were constructed for each experimental variable to graded i.v. doses of the β-adrenergic agonist, isoproterenol. A period of 3-5 minutes was allowed after each injection for variables to return to base-line. Following this, one of the four experimental β-adrenergic blocking agents was given i.v. over a one-minute period. Abbreviated dose-response curves (2-3 dose points) were again constructed to isoproterenol at 15, 30, 45, 60, 75 and 90 minutes after the administration of the test blockers. Using a 50-beat per minute (bpm) increase in heart rate as criteria, the degree of blockade was determined by dividing the dose of isoproterenol needed to produce a 50 bpm increase at various times following administration of an antagonists by the dose needed for this effect during the control period. The doses of the experimental β-adrenergic antagonists given were determined from previous experiments to produce an approximate two- or four-fold blockade of the heart rate response to isoproterenol.

[2] = tested on: blood pressure response to isoproterenol; assay: Blood pressure response to isoproterenol in rats; type: in vivo, male Spraque-Dawley rats; conditions: 6 mg/kg i.p.; 10 minutes after isoproterenol
From the text: Initial Drug Screening Protocol. Thirty-two male Spraque-Dawley rats (Blue Spruce Farms) initially weighing 300-450 gm were divided into seven different groups, each for a different drug to be tested: 12(n=4), 14(n=4), 17(n=5), 13(n=4) and 18(n=3), corresponding to the designated compounds 12, 14, 17, 13 and 18 (number of animals), respectively. The other two groups were controls (n=8, isoproterenol alone pretreated with carrier) and those treated with a known β-blocker, dl-propranolol (n=3). Ech animal was anesthetized with sodium pentobarbital (45 mg/kg) and the carotid artery was cannulated with PE-50 tubing. The cannula was subcutaneously threaded around the neck and exteriorized dorsally between the shoulder blades. Th cannula was filled with a heparin solution (300 μg/mL) and sealed with a solid 22 gauge stylet. The animals were housed in individual stainless steel cages, and two days were allowed for recovery from the surgery. Food and water were provided ad libitum. On the day of the experiment, the blood pressure and heart rate of each rat were monitored with a pressure transducer (Narco-Bio model P-1000) and the data recorded on a four-channel physiograph (Narco-Bio systems Marck IV). One hour was allowed as an equilibration period before any drugs were administered. All beta blockers were administered intraperitoneally at a dose of 6 mg/kg. Compounds 12 and 14 and dl-proranolol were dissolved in normal saline while compounds 13, 17 and 18 were dissolved in an ethanol: water solution (3:1). Depending on the trial, controls were administered the appropriate carrier. One hour after administration of the blocker, isoproterenol (Isuprel®, Wintrop Laboratories) was administered subcutaneously at a dose of 25 μg/kg. Blood pressures and heart rate also were recorded 3, 5, 10, 15, 20, 30, 45 and 60 minutes after isoproterenol administration. Both control and experimental animals were unrestrained and free moving in their home cage throughout the experiment. […] However, significant differences in the mean heart rate response amoung the 7 groups were observed: *p<0.005;**p<0.025. Comparisons between groups were made by the Newman-Keuls procedure with significance set at the 95% confidence interval. […] All data are shown as mean±standard error of the mean.
Symbols are the same as those described for FIG. 1. […] Data are shown as mean±standard error of the mean.

[3] = Hydrolytic rate in 0.01 N aqueous sodium hydroxide, pH 12.0; type: physicochemical; conditions: pH 12.0, ionic strength 0.10 M (NaCl), 27.3 ± 0.2° C.
Experimental: Analytical Methods. A high pressure liquid chromatography (HPLC) method was developed for the determination of the rate constants. The chromatographic analysis was performed in a system consisting of Waters Associates Model 600-A Solvent Delivery System, Model U-6K Injector and Model 440 Dual Channel Absorbance Detector operated at 254 and 280 nm. A 30 cm×3.9 mm (internal diameter) reverse phase μBondpack C18 column (Waters Associates), operated at ambient temperature, was used for all separations. When plasma samples were analyzed, the column was protected with a 2.3 cm×3.9 mm (internal diameter) Guard Column (Waters) packed with μBondpack C18/Corasil packing material. The mobile phase used for the separation of 17 and its degradation product, 5, consisted of water, 1-hexane sulfonic acid in acetic acid (B-6 reagent, Waters), 0.1M triethanolamine and methanol (100:1:100:799). […] For the separation of compounds 10-16 and 18 and their degradation product 5, a mobile phase consisting of water, 1-hexane sulfonic acid in acetic acid (B-6 reagent, Waters), 0.1M triethanolamine and methanol (390:1:10:599) was used.
Determination of the Hydrolytic Rate Constants in Aqueous Solutions. A 0.01M phosphate buffer and 0.01N sodium hydroxide solution were prepared from freshly distilled deionized water. This ionic strength was maintained at 0.1M with sodium chloride. The pH of the phosphate buffer was determined at 37.0° C. with a pH meter standardized at this temperature. For determination of the hydrolytic rate constants, a fresh concentrated solution of the ester in methanol was added to the hydrolytic medium previously equilibrated to the desired temperature and mixed thoroughly to result in an initial concentration of about 5×10^-4 mol. liter^-1. All reactions were run under pseudo first order conditions. Samples of 25 μL were injected into the column at various time intervals and the pseudo first order rate constants were determined from disappearance of the compound by linear regression of natural logarithm of the peak height versus time plots. The half-life and standard error of the rate constant were calculated for each run.

[4] = 1 mg/kg i.v., 15 minute measurements

CC(C)NCC(O)COc1ccc(CC(=O)OC2CC(C)(C)CC(C)(C)C2)cc1 (centres unmarked) [Compound 17, 3,3,5,5-Tetramethylcyclohexyl 4-(2-hydroxy-3-isopropylamino)propoxyphenylacetate oxalate 3/4 hydrate]
Duration, Mean (time at which response to isoproterenol had returned to control levels) ([1]; 1 mg/kg i.v.): ~ 70 min | Duration, Range (time at which response to isoproterenol had returned to control levels) ([1]; 1 mg/kg i.v.): 45 to 90 min | Maximal blockade, Mean (time necessary to reach maximal blockade) [1, 4]: 40 min | Maximal blockade, Range (time necessary to reach maximal blockade) [1, 4]: 30 to 60 min | duration of action ([1]; i.v.): much more variable and generally longer | mean change in blood pressure at 10 minutes vs compound 18 group [2]: significantly different from the group treated with compound 18 | Observed pseudo first order hydrolytic rate constant k ([3]; 0.01 N NaOH, ± SEM): 1.56 ± 0.04 × 10^-2 min^-1 | half-life ([3]; 0.01 n naoh, pH 12, 0.01 N NaOH, read-out: Half-life t1/2): 44.4 min
